The values below are quoted from earlier work in patent US9694008B2, “Fast-dissolving oral film preparation comprising aripiprazole” (CMG Pharmaceutical CO., LTD., priority 2012, dated 2017).

The conditions of the data set: at 25° C.

As for `O=C1CCc2ccc(OCCCCN3CCN(c4cccc(Cl)c4Cl)CC3)cc2N1` [aripiprazole, 7-{4-[4-(2,3-dichlorophenyl)piperazin-1-yl]butoxy}-3,4-dihydroquinolin-2(1H)-one], the Solubility in water result is on record as “about 0.00001 w/v %”.
